Data as given in patent US20230339970A1, “CASEIN KINASE 1 DELTA MODULATORS” (priority 2020, published 2023).

Key:
human CSNK1D = biological target: T1, human CSNK1D (Homo sapiens, UniProt P48730); experiment: Whole Cell nBRET CSNK1D Binding Assay; settings: living CHO cells stably expressing human CSNK1D tagged with nanoluciferase; NanoBret tracer 130 nM; 2 hours at 37 C
T1 construct: expressed in transfected cells

[1] = biological target: T2, human recombinant GST cleaved CSNK1D (Homo sapiens, UniProt P48730); experiment: Purified Enzyme Assay (ADP-Glo CSNK1D Kinase Assay); type: biochemical; settings: 2 nM CSNK1D; peptide substrate 150 μM; ATP 20 μM; 45 minutes at room temperature
T2 construct: GST (cleaved yes); purchased University of Dundee clone DU 19064
T2 sequence (P48730 whole entry): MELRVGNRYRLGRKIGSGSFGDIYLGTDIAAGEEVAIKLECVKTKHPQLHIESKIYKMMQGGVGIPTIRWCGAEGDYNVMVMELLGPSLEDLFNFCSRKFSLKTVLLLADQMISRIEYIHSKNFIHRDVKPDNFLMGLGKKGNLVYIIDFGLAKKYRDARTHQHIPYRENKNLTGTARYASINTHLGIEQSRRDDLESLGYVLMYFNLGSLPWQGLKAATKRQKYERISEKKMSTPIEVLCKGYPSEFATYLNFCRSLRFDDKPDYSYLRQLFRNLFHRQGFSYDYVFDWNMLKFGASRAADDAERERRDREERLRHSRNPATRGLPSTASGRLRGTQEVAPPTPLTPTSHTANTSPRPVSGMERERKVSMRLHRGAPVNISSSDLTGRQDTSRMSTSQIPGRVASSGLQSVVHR
Summary of the method: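 GST-cleaved human recombinant CSNK1D phosphorylates peptide PLSRTL-pS-VASLPGL with ATP; compounds added in dose-response, 45 min at room temperature. ADP formed measured by ADP-Glo luminescence and converted to percent activity.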

T1 sequence (P48730 whole entry): as above

SMILES | IC50 (human CSNK1D) | IC50 [1]
C[C@H]1CCc2c(-c3ccnc4[nH]ncc34)c(-c3ccc(F)cn3)nn21 [Example 19, 4-[(6S)-2-(5-Fluoro-2-pyridyl)-6-methyl-5,6-dihydro-4H-pyrrolo[1,2-b]pyrazol-3-yl]-1H-pyrazolo[3,4-b]pyridine] | 192 nM | 8 nM
CCC(=O)Nc1cc(-c2c(-c3ccc(F)cn3)nn3c2COC(C)(C)C3)ccn1 [Example 131, N-(4-(2-(5-Fluoropyridin-2-yl)-6,6-dimethyl-6,7-dihydro-4H-pyrazolo[5,1-c][1,4]oxazin-3-yl)pyridin-2-yl)propionamide] | 16 nM | 3 nM
C[C@@H]1OCc2c(-c3ccnc4[nH]ncc34)c(-c3ccc(F)cc3)nn2[C@H]1C (single isomer, unassigned) [Example 115, (6*S,7*S)-2-(4-Fluorophenyl)-6,7-dimethyl-3-(1H-pyrazolo[3,4-b]pyridin-4-yl)-6,7-dihydro-4H-pyrazolo[5,1-c][1,4]oxazine] | 74 nM | 6 nM
CC1(C)Cn2nc(-c3ccc(F)cn3)c(-c3ccnc(NC(=O)C4CC4)c3)c2CO1 [Example 134, N-(4-(2-(5-Fluoropyridin-2-yl)-6,6-dimethyl-6,7-dihydro-4H-pyrazolo[5,1-c][1,4]oxazin-3-yl)pyridin-2-yl)cyclopropanecarboxamide] | 7 nM | 1 nM
Cc1cc(-c2c(-c3ccc(F)cc3)nn3c2CO[C@@H](C)C3)c2cn[nH]c2n1 (single isomer, unassigned) [Example 83, (*S)-2-(4-Fluorophenyl)-6-methyl-3-(6-methyl-1H-pyrazolo[3,4-b]pyridin-4-yl)-6,7-dihydro-4H-pyrazolo[5,1-c][1,4]oxazine] | 34 nM | 3 nM
Fc1cnc(-c2nn3c(c2-c2ccnc4[nH]ncc24)CCCC3)c(F)c1 [Example 38, 4-[2-(3,5-Difluoro-2-pyridyl)-4,5,6,7-tetrahydropyrazolo[1,5-a]pyridin-3-yl]-1H-pyrazolo[3,4-b]pyridine] | 238 nM | 14 nM
c1cc(-c2c(-c3cscn3)nn3c2CCCC3)c2cn[nH]c2n1 [Example 31, 4-(3-(1H-Pyrazolo[3,4-b]pyridin-4-yl)-4,5,6,7-tetrahydropyrazolo[1,5-a]pyridin-2-yl)thiazole] | 995 nM | 65 nM
C[C@@H]1OCc2c(-c3ccnc4[nH]ncc34)c(-c3ccc(F)cn3)nn2[C@@H]1C (single isomer, unassigned) [Example 117, (6*S,7*R)-2-(5-Fluoropyridin-2-yl)-6,7-dimethyl-3-(1H-pyrazolo[3,4-b]pyridin-4-yl)-6,7-dihydro-4H-pyrazolo[5,1-c][1,4]oxazine] | 925 nM | 45 nM
Fc1ccc(-c2nn3c(c2-c2ccnc4[nH]ccc24)COCC3)cc1 [Example 69, 2-(4-Fluorophenyl)-3-(1H-pyrrolo[2,3-b]pyridin-4-yl)-6,7-dihydro-4H-pyrazolo[5,1-c][1,4]oxazine] | 43 nM | 7 nM

Next, values leading:

IC50 (human CSNK1D) | IC50 [1] | SMILES
58 nM | 5 nM | Cc1cc(-c2c(-c3ccc(F)cc3)nn3c2C(C)(C)CC3)c2cn[nH]c2n1 [Example 246, 4-[2-(4-Fluorophenyl)-4,4-dimethyl-5,6-dihydropyrrolo[1,2-b]pyrazol-3-yl]-6-methyl-1H-pyrazolo[3,4-b]pyridine]
> 10000 nM | 143 nM | CC1(C)Cn2nc(-c3ccncc3Cl)c(-c3ccnc4[nH]ncc34)c2CO1 [Example 162, 2-(3-Chloropyridin-4-yl)-6,6-dimethyl-3-(1H-pyrazolo[3,4-b]pyridin-4-yl)-6,7-dihydro-4H-pyrazolo[5,1-c][1,4]oxazine]
87 nM | 5 nM | Cc1cc(-c2c(-c3ccc(F)cn3)nn3c2COC(C)(C)C3)c2c(C)n[nH]c2n1 [Example 156, 3-(3,6-Dimethyl-1H-pyrazolo[3,4-b]pyridin-4-yl)-2-(5-fluoro-2-pyridyl)-6,6-dimethyl-4,7-dihydropyrazolo[5,1-c][1,4]oxazine]
3 nM | 1 nM | CC1(C)Cn2nc(-c3ccc(F)cc3)c(-c3ccnc4[nH]ncc34)c2CO1 [Example 144, 2-(4-Fluorophenyl)-6,6-dimethyl-3-(1H-pyrazolo[3,4-b]pyridin-4-yl)-6,7-dihydro-4H-pyrazolo[5,1-c][1,4]oxazine]
17 nM | 1 nM | Fc1ccc(-c2nn3c(c2-c2ccnc4[nH]nc(Cl)c24)OCC(F)(F)C3)cc1 [Example 470, 3-(3-Chloro-1H-pyrazolo[3,4-b]pyridin-4-yl)-6,6-difluoro-2-(4-fluorophenyl)-6,7-dihydro-5H-pyrazolo[5,1-b][1,3]oxazine]
1490 nM | 99 nM | Fc1ccc(-c2nn3c(c2-c2ccnc4cn[nH]c24)CCC3)nc1 [Example 220, 7-[2-(5-Fluoro-2-pyridyl)-5,6-dihydro-4H-pyrrolo[1,2-b]pyrazol-3-yl]-1H-pyrazolo[4,3-b]pyridine]
13 nM | 4 nM | CC1(C)Cc2c(-c3ccnc4[nH]nc(Cl)c34)c(-c3ccc(F)cn3)nn2C1 [Example 237, 3-Chloro-4-(2-(5-fluoropyridin-2-yl)-5,5-dimethyl-5,6-dihydro-4H-pyrrolo[1,2-b]pyrazol-3-yl)-1H-pyrazolo[3,4-b]pyridine]
6 nM | 3 nM | CC1(C)Cn2nc(-c3ccc(F)cn3)c(-c3ccnc(NC(=O)C4CC4(F)F)c3)c2CO1 (stereo not drawn) [Example 135, 2,2-Difluoro-N-(4-(2-(5-fluoropyridin-2-yl)-6,6-dimethyl-6,7-dihydro-4H-pyrazolo[5,1-c][1,4]oxazin-3-yl)pyridin-2-yl)cyclopropane-1-carboxamide]
760 nM | 30 nM | CC1(C)Cn2nc(-c3ccc(F)cn3)c(-c3ccn4nccc4n3)c2CO1 [Example 387, 2-(5-Fluoropyridin-2-yl)-6,6-dimethyl-3-(pyrazolo[1,5-a]pyrimidin-5-yl)-6,7-dihydro-4H-pyrazolo[5,1-c][1,4]oxazine]
37 nM | 10 nM | Cc1nc2[nH]nc(C)c2c(-c2c(-c3ccc(F)cn3)nn3c2CC2(C3)CC2(F)F)c1F (single isomer, unassigned) [Example 265, (*R)-1′.1′-Difluoro-3-(5-fluoro-3,6-dimethyl-1H-pyrazolo[3,4-b]pyridin-4-yl)-2-(5-fluoro-2-pyridyl)spiro[4,6-dihydropyrrolo[1,2-b]pyrazole-5,2′-cyclopropane]]
102 nM | 5 nM | Cc1cc(-c2c(-c3ccc(F)cc3)nn3c2[C@@H]2CC[C@H]3C2)c2cn[nH]c2n1 (single isomer, unassigned) [Example 364, (4*R,7*S)-2-(4-Fluorophenyl)-3-(6-methyl-1H-pyrazolo[3,4-b]pyridin-4-yl)-4,5,6,7-tetrahydro-4,7-methanopyrazolo[1,5-a]pyridine]
> 10000 nM | 1670 nM | Cc1n[nH]c2ncc(F)c(-c3c(-c4ccc(F)cn4)nn4c3CC[C@H]3[C@@H]4C3(F)F)c12 (single isomer, unassigned) [Example 359, (5a*S,6a*R)-6,6-Difluoro-3-(5-fluoro-3-methyl-1H-pyrazolo[3,4-b]pyridin-4-yl)-2-(5-fluoropyridin-2-yl)-5,5a,6,6a-tetrahydro-4H-cyclopropa[e]pyrazolo[1,5-a]pyridine]
